{"source": "patent US9132140B2", "about": "“Boronic acid derivatives and therapeutic uses thereof” (Rempex Pharmaceuticals, Inc., priority 2013, dated 2015)", "key": {"EA1019 (SHV-5, VIM-1)": {"system": "EA1019 (SHV-5, VIM-1)", "format": "cell-based, Enterobacter aerogenes", "from_the_text": "(§1) Several strains simultaneously expressing both class A and class B carbapenemases, which were constructed using conjugation, were also included in the panel."}, "EC1061 (NDM-1, CMY-6)": {"system": "EC1061 (NDM-1, CMY-6)", "format": "cell-based, Escherichia coli", "from_the_text": "as §1"}, "EC1068 (VIM-1)": {"system": "EC1068 (VIM-1)", "format": "cell-based, Escherichia coli", "from_the_text": "as §1"}, "EC1065 (IMP-1 CMY-2)": {"system": "EC1065 (IMP-1 CMY-2)", "format": "cell-based, Escherichia coli", "from_the_text": "as §1"}, "[1]": {"system": "EC1064 (NDM-1, CMY-6, CTX-M-15)", "format": "cell-based, Escherichia coli", "from_the_text": "as §1"}, "ECL1026 (KPC)": {"system": "ECL1026 (KPC)", "format": "cell-based, Enterobacter cloacae", "from_the_text": "as §1"}, "ECL1045 (VIM-1)": {"system": "ECL1045 (VIM-1)", "format": "cell-based, Enterobacter cloacae", "from_the_text": "as §1"}, "ECLM1016 (NDM, KPC)": {"system": "ECLM1016 (NDM, KPC)", "format": "cell-based, Enterobacter cloacae", "from_the_text": "as §1"}, "[2]": {"system": "ECL1057 (NDM-1, TEM-1, CTX-M-15)", "format": "cell-based, Enterobacter cloacae", "from_the_text": "as §1"}, "ECLM1013 (NDM, KPC)": {"system": "ECLM1013 (NDM, KPC)", "format": "cell-based, Enterobacter cloacae", "from_the_text": "as §1"}, "ECLM1018 (VIM, KPC)": {"system": "ECLM1018 (VIM, KPC)", "format": "cell-based, Enterobacter cloacae", "from_the_text": "as §1"}, "ECL1082 (VIM-1)": {"system": "ECL1082 (VIM-1)", "format": "cell-based, Enterobacter cloacae", "from_the_text": "as §1"}, "ECLM1015 (NDM, KPC)": {"system": "ECLM1015 (NDM, KPC)", "format": "cell-based, Enterobacter cloacae", "from_the_text": "as §1"}, "ECL1036 (KPC)": {"system": "ECL1036 (KPC)", "format": "cell-based, Enterobacter cloacae", "from_the_text": "as §1"}, "ECLM1019 (VIM, KPC)": {"system": "ECLM1019 (VIM, KPC)", "format": "cell-based, Enterobacter cloacae", "from_the_text": "as §1"}}, "data": [{"smiles": "Nn1cnnc1S[C@H]1Cc2cccc(C(=O)O)c2OB1O", "note": "[Compound 14, (R)-3-(4-amino-4H-1,2,4-triazol-3-ylthio)-2-hydroxy-3,4-dihydro-2H-benzo[e][1,2]oxaborinine-8-carboxylic acid]", "values": [{"measurement": "Imipenem + 14 MIC", "setting": "EA1019 (SHV-5, VIM-1)", "result": "Y (key: X: MIC of less than 1 μg/mL; Y: MIC of 1 μg/mL to 10 μg/mL; Z: MIC of greater than 10 μg/mL)"}, {"measurement": "Meropenem + 14 MIC", "setting": "EA1019 (SHV-5, VIM-1)", "result": "X (key: X: MIC of less than 1 μg/mL; Y: MIC of 1 μg/mL to 10 μg/mL; Z: MIC of greater than 10 μg/mL)"}, {"measurement": "Imipenem + 14 MIC", "setting": "EC1061 (NDM-1, CMY-6)", "result": "X (key: X: MIC of less than 1 μg/mL; Y: MIC of 1 μg/mL to 10 μg/mL; Z: MIC of greater than 10 μg/mL)"}, {"measurement": "Meropenem + 14 MIC", "setting": "EC1061 (NDM-1, CMY-6)", "result": "X (key: X: MIC of less than 1 μg/mL; Y: MIC of 1 μg/mL to 10 μg/mL; Z: MIC of greater than 10 μg/mL)"}, {"measurement": "Imipenem + 14 MIC", "setting": "EC1068 (VIM-1)", "result": "X (key: X: MIC of less than 1 μg/mL; Y: MIC of 1 μg/mL to 10 μg/mL; Z: MIC of greater than 10 μg/mL)"}, {"measurement": "Meropenem + 14 MIC", "setting": "EC1068 (VIM-1)", "result": "X (key: X: MIC of less than 1 μg/mL; Y: MIC of 1 μg/mL to 10 μg/mL; Z: MIC of greater than 10 μg/mL)"}, {"measurement": "Imipenem + 14 MIC", "setting": "EC1065 (IMP-1 CMY-2)", "result": "X (key: X: MIC of less than 1 μg/mL; Y: MIC of 1 μg/mL to 10 μg/mL; Z: MIC of greater than 10 μg/mL)"}, {"measurement": "Meropenem + 14 MIC", "setting": "EC1065 (IMP-1 CMY-2)", "result": "X (key: X: MIC of less than 1 μg/mL; Y: MIC of 1 μg/mL to 10 μg/mL; Z: MIC of greater than 10 μg/mL)"}, {"measurement": "Imipenem + 14 MIC", "setting": "[1]", "result": "X (key: X: MIC of less than 1 μg/mL; Y: MIC of 1 μg/mL to 10 μg/mL; Z: MIC of greater than 10 μg/mL)"}, {"measurement": "Meropenem + 14 MIC", "setting": "[1]", "result": "Y (key: X: MIC of less than 1 μg/mL; Y: MIC of 1 μg/mL to 10 μg/mL; Z: MIC of greater than 10 μg/mL)"}, {"measurement": "Imipenem + 14 MIC", "setting": "ECL1026 (KPC)", "result": "X (key: X: MIC of less than 1 μg/mL; Y: MIC of 1 μg/mL to 10 μg/mL; Z: MIC of greater than 10 μg/mL)"}, {"measurement": "Meropenem + 14 MIC", "setting": "ECL1026 (KPC)", "result": "X (key: X: MIC of less than 1 μg/mL; Y: MIC of 1 μg/mL to 10 μg/mL; Z: MIC of greater than 10 μg/mL)"}, {"measurement": "Imipenem + 14 MIC", "setting": "ECL1045 (VIM-1)", "result": "X (key: X: MIC of less than 1 μg/mL; Y: MIC of 1 μg/mL to 10 μg/mL; Z: MIC of greater than 10 μg/mL)"}, {"measurement": "Meropenem + 14 MIC", "setting": "ECL1045 (VIM-1)", "result": "X (key: X: MIC of less than 1 μg/mL; Y: MIC of 1 μg/mL to 10 μg/mL; Z: MIC of greater than 10 μg/mL)"}, {"measurement": "Imipenem + 14 MIC", "setting": "ECLM1016 (NDM, KPC)", "result": "X (key: X: MIC of less than 1 μg/mL; Y: MIC of 1 μg/mL to 10 μg/mL; Z: MIC of greater than 10 μg/mL)"}, {"measurement": "Meropenem + 14 MIC", "setting": "ECLM1016 (NDM, KPC)", "result": "X (key: X: MIC of less than 1 μg/mL; Y: MIC of 1 μg/mL to 10 μg/mL; Z: MIC of greater than 10 μg/mL)"}, {"measurement": "Imipenem + 14 MIC", "setting": "[2]", "result": "Y (key: X: MIC of less than 1 μg/mL; Y: MIC of 1 μg/mL to 10 μg/mL; Z: MIC of greater than 10 μg/mL)"}, {"measurement": "Meropenem + 14 MIC", "setting": "[2]", "result": "Z (key: X: MIC of less than 1 μg/mL; Y: MIC of 1 μg/mL to 10 μg/mL; Z: MIC of greater than 10 μg/mL)"}, {"measurement": "Imipenem + 14 MIC", "setting": "ECLM1013 (NDM, KPC)", "result": "X (key: X: MIC of less than 1 μg/mL; Y: MIC of 1 μg/mL to 10 μg/mL; Z: MIC of greater than 10 μg/mL)"}, {"measurement": "Meropenem + 14 MIC", "setting": "ECLM1013 (NDM, KPC)", "result": "X (key: X: MIC of less than 1 μg/mL; Y: MIC of 1 μg/mL to 10 μg/mL; Z: MIC of greater than 10 μg/mL)"}, {"measurement": "Imipenem + 14 MIC", "setting": "ECLM1018 (VIM, KPC)", "result": "Y (key: X: MIC of less than 1 μg/mL; Y: MIC of 1 μg/mL to 10 μg/mL; Z: MIC of greater than 10 μg/mL)"}, {"measurement": "Meropenem + 14 MIC", "setting": "ECLM1018 (VIM, KPC)", "result": "X (key: X: MIC of less than 1 μg/mL; Y: MIC of 1 μg/mL to 10 μg/mL; Z: MIC of greater than 10 μg/mL)"}, {"measurement": "Imipenem + 14 MIC", "setting": "ECL1082 (VIM-1)", "result": "X (key: X: MIC of less than 1 μg/mL; Y: MIC of 1 μg/mL to 10 μg/mL; Z: MIC of greater than 10 μg/mL)"}, {"measurement": "Meropenem + 14 MIC", "setting": "ECL1082 (VIM-1)", "result": "X (key: X: MIC of less than 1 μg/mL; Y: MIC of 1 μg/mL to 10 μg/mL; Z: MIC of greater than 10 μg/mL)"}, {"measurement": "Imipenem + 14 MIC", "setting": "ECLM1015 (NDM, KPC)", "result": "X (key: X: MIC of less than 1 μg/mL; Y: MIC of 1 μg/mL to 10 μg/mL; Z: MIC of greater than 10 μg/mL)"}, {"measurement": "Meropenem + 14 MIC", "setting": "ECLM1015 (NDM, KPC)", "result": "X (key: X: MIC of less than 1 μg/mL; Y: MIC of 1 μg/mL to 10 μg/mL; Z: MIC of greater than 10 μg/mL)"}, {"measurement": "Imipenem + 14 MIC", "setting": "ECL1036 (KPC)", "result": "X (key: X: MIC of less than 1 μg/mL; Y: MIC of 1 μg/mL to 10 μg/mL; Z: MIC of greater than 10 μg/mL)"}, {"measurement": "Meropenem + 14 MIC", "setting": "ECL1036 (KPC)", "result": "X (key: X: MIC of less than 1 μg/mL; Y: MIC of 1 μg/mL to 10 μg/mL; Z: MIC of greater than 10 μg/mL)"}, {"measurement": "Imipenem + 14 MIC", "setting": "ECLM1019 (VIM, KPC)", "result": "X (key: X: MIC of less than 1 μg/mL; Y: MIC of 1 μg/mL to 10 μg/mL; Z: MIC of greater than 10 μg/mL)"}]}]}
